What follows are compounds tested against PAPD5 enzyme (Homo sapiens, UniProt Q8NDF8) (assay: PAPD5 assay (AMP incorporation onto 3'-terminus of RNA substrate, fluorescence quench)). Conditions: PAPD5 protein 0.3 nM, ATP 50 μM, 30 minutes preincubation, room temperature; read-out: Potency PAPD5 IC50.
Type: biochemical
How it was run: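 Enzyme at 0.3 nM with 50 μM ATP, pH 7.3 HEPES buffer, preincubated with compound 30 minutes at room temperature; 5 nM 5′-fluorescein RNA substrate and 20 nM TAMRA quench probe then added. Initial rates from kinetic fluorescein decrease over ~90 minutes; IC50 by four-parameter fit.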

Sequence of PAPD5 enzyme (Q8NDF8 whole entry): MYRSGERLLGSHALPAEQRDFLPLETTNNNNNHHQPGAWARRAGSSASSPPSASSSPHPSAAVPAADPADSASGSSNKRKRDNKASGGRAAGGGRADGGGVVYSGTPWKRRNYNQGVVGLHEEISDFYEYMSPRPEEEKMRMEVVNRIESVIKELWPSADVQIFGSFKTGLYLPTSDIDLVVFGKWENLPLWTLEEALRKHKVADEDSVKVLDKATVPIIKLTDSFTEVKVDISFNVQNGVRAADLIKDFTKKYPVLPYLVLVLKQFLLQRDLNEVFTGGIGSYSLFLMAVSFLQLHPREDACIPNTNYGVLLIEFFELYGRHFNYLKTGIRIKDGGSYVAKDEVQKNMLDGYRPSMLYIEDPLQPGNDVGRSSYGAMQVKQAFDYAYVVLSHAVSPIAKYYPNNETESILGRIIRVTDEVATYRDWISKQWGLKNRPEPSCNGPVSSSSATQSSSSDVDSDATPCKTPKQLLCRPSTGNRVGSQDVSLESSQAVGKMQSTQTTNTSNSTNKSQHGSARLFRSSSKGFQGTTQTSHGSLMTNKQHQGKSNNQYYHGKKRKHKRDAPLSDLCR

| Compound | IC50 [µM] |
| --- | --- |
| Nc1ccc(-n2cc(C(=O)O)c(=O)c3cc(F)c(N4Cc5ccccc5C4)cc32)cn1 [Example 195, 1-(6-aminopyridin-3-yl)-6-fluoro-7-(isoindolin-2-yl)-4-oxo-1,4-dihydroquinoline-3-carboxylic acid] | ≤ 1 |
| Cc1cc(NC(=O)OC(C)(C)C)ncc1-n1cc(C(=O)O)c(=O)c2cc(Cl)c(N3CCc4cnccc4C3)nc21 [Example 196, 1-(6-((tert-butoxycarbonyl)amino)-4-methylpyridin-3-yl)-6-chloro-7-(3,4-dihydro-2,6-naphthyridin-2(1H)-yl)-4-oxo-1,4-dihydro-1,8-naphthyridine-3-carboxylic acid] | ≤ 1 |
| Cc1cc(N)ncc1-n1cc(C(=O)O)c(=O)c2cc(Cl)c(N3CCc4cnccc4C3)nc21 [Example 197, 1-(6-amino-4-methylpyridin-3-yl)-6-chloro-7-(3,4-dihydro-2,6-naphthyridin-2(1H)-yl)-4-oxo-1,4-dihydro-1,8-naphthyridine-3-carboxylic acid] | ≤ 1 |
| Cc1cc(N)ncc1-n1cc(C(=O)O)c(=O)c2cc(Cl)c(N3CCc4ncncc4C3)nc21 [Example 198, 1-(6-amino-4-methylpyridin-3-yl)-6-chloro-7-(7,8-dihydropyrido[4,3-d]pyrimidin-6(5H)-yl)-4-oxo-1,4-dihydro-1,8-naphthyridine-3-carboxylic acid] | ≤ 1 |
| CCCc1cc(N)ncc1-n1cc(C(=O)O)c(=O)c2cc(Cl)c(N3Cc4cccnc4C3)cc21 [Example 199, 1-(6-amino-4-propylpyridin-3-yl)-6-chloro-7-(5,7-dihydro-6H-pyrrolo[3,4-b]pyridin-6-yl)-4-oxo-1,4-dihydroquinoline-3-carboxylic acid] | ≤ 1 |
| Cc1cc(NS(C)(=O)=O)ncc1-n1cc(C(=O)O)c(=O)c2cc(Cl)c(N3Cc4cccnc4C3)nc21 [Example 200, 6-chloro-7-(5,7-dihydro-6H-pyrrolo[3,4-b]pyridin-6-yl)-1-(4-methyl-6-(methylsulfonamido)pyridin-3-yl)-4-oxo-1,4-dihydro-1,8-naphthyridine-3-carboxylic acid] | ≤ 1 |
| O=C(O)c1cn(-c2cnc(N3CCC3)cn2)c2cc(N3Cc4cccnc4C3)c(Cl)cc2c1=O [Example 201, 1-(5-(azetidin-1-yl)pyrazin-2-yl)-6-chloro-7-(5,7-dihydro-6H-pyrrolo[3,4-b]pyridin-6-yl)-4-oxo-1,4-dihydroquinoline-3-carboxylic acid] | ≤ 1 |

The next lines start with the values.

| IC50 [µM] | Compound |
| --- | --- |
| ≤ 1 | Cc1cc(N2CCC2)ncc1-n1cc(C(=O)O)c(=O)c2cc(F)c(N3Cc4cccnc4C3)cc21 [Example 190, 1-(6-(azetidin-1-yl)-4-methylpyridin-3-yl)-7-(5,7-dihydro-6H-pyrrolo[3,4-b]pyridin-6-yl)-6-fluoro-4-oxo-1,4-dihydroquinoline-3-carboxylic acid] |
| ≤ 1 | Cc1cc(N(C)CCN(C)C)ncc1-n1cc(C(=O)O)c(=O)c2cc(Cl)c(N3Cc4cccnc4C3)nc21 [Example 192, 6-chloro-7-(5,7-dihydro-6H-pyrrolo[3,4-b]pyridin-6-yl)-1-(6-((2-(dimethylamino)ethyl)(methyl)amino)-4-methylpyridin-3-yl)-4-oxo-1,4-dihydro-1,8-naphthyridine-3-carboxylic acid] |
| ≤ 1 | Nc1ccc(-n2cc(C(=O)O)c(=O)c3cc(Cl)c(N4Cc5ccccc5C4)cc32)cn1 [Example 194, 1-(6-aminopyridin-3-yl)-6-chloro-7-(isoindolin-2-yl)-4-oxo-1,4-dihydroquinoline-3-carboxylic acid] |

Source: patent US20240376100A1 (Redona Therapeutics, Inc., priority 2021, published 2024)
